Measurements from US20180201594A1, “Compound pac-1 or salt thereof and pharmaceutical composition comprising same” (priority 2015, published 2018).
≈ marks a conversion by molar mass, not a printed value.

Key:
VEGF = VEGF protein expression in HGC-27 cells (immunofluorescence); assay type: cell-based; settings: n = 6
Description: (§1) The sterilized cell transfer membrane was taken and placed into a 24-well plate, which was seeded with 1 mL (1×10^5 cells/mL) cell suspension, and cultured for 24 h. Drug-containing medium was added, The negative control groups and administration groups were set, with the experimental groups intervened for 24-48 h. The plate was washed with PBS, and fixed with 4% paraformaldehyde for 15 min. It was treated with 0.1% TritonX-100, and washed with PBS, blocked with 1:10 diluted normal serum blocking solution for 15 min. The plate was added 1:100 diluted primary antibody, placed at 4° C. overnight. The plate was washed with PBS, to which 1:100 diluted secondary antibodies was added and incubated at room temperature for 30 min. The plate was washed with PBS, to which 1:100 diluted SABC-FITC was added, and re-incubated at room temperature for additional 30 min. The unbound FITC was washed with PBS. We observed and taken pictures under fluorescence microscope, and analyzed the fluorescence intensity by Bioflux Montage software. 6 fields were selected randomly under microscope for each group and the integral optical density value of cells was calculated.

[1] = tested on: Murine Lewis lung carcinoma cell line; experiment: Spontaneous metastatic cancer in mice (Lewis lung carcinoma); settings: for Inhibition rate of metastasis loci / Metastasis rate / Number of lung (metastasis loci) / Tumor weight / tumor inhibition rate: intragastric administration
Description: The tumors growed to 1000 mm^3 and then were randomly divided into groups for adminstration, the groups were treated after three weeks. A total of 4 groups including ZYS-1 high, medium and low (100, 50, 25 mg/kg/d, intragastric administration) and positive control (gefitinib 100 mg/kg/d, intragastric administration) groups were set. The efficacy of ZYS-1 was evaluated in terms of general survival status (food intake, activity, hair etc.), tumor inhibition rate and metastasis inhibition rate.
The curve of tumor growth was plotted. On the next day after completing the treatment cycle, the animal was weighed. After collecting the blood, the animal was sacrificed. The tumor tissue was stripped, weighed, and the tumor inhibition rate was calculated. Store at −80 ? .
Metastasis rate=Number of mice with metastasis/Total number of mice×100%
Inhibition rate of metastasis loci=(average number of metastasis loci in the control group−average number of metastasis loci in the experimental group)/average number of metastasis loci in the control group×100%

NF-κB = NF-κB protein expression in HGC-27 cells (immunofluorescence); assay type: cell-based; settings: n = 6
Description: as §1

[2] = Solubility comparison of ZYS-1 and PAC-1 needle crystal (HPLC); assay type: physicochemical; settings: room temperature
Description: The appropriate amounts of ZYS-1 and PAC-1 needle crystal were dissolved into the appropriate amount of methanol, absolute ethanol, 95% ethanol, acetonitrile, ethyl ether, ethyl acetate, propanol, acetone, respectively, and sonicated for 1 hour, then left at room temperature for 24 hours to obtain the oversaturated solution. After centrifugation at 4000 r/min for 5 min, the supernatant was diluted appropriately and filtered through a 0.45 μm needle filter. The concentration was determined by HPLC and the solubility was calculated.

Q: Which “VEGF protein expression (integral optical density value)” value (VEGF; 4 μM) does the source give for C=CCc1cccc(/C=N/NC(=O)CN2CCN(Cc3ccccc3)CC2)c1O [ZYS-1, 1-Piperazineacetic acid, 4-(phenylmethyl)-2-[[2-hydroxy-3-(2-propen-1-yl)phenyl]methylene]] here?
A: 31.17 ± 0.24

Q: What about the “VEGF protein expression (integral optical density value)” value (VEGF; 8 μM) of the same compound?
A: 30.51 ± 0.32

Q: And the “Inhibition rate of metastasis loci” value ([1]; 25 mg/kg/d)?
A: 54.68%

Q: And the Metastasis rate ([1]; 25 mg/kg/d)?
A: 100%

Q: What about the “Number of lung (metastasis loci)” value ([1]; 25 mg/kg/d) of the same compound?
A: 6.3 ± 3.3

Q: What about the Tumor weight ([1]; 25 mg/kg/d) of the same compound?
A: 1.9579 ± 0.8346 g

Q: What about the tumor inhibition rate ([1]; 25 mg/kg/d) of the same compound?
A: 50.63%

Q: And the “Inhibition rate of metastasis loci” value ([1]; 50 mg/kg/d)?
A: 61.15%

Q: And the Metastasis rate ([1]; 50 mg/kg/d)?
A: 100%

Q: What about the “Number of lung (metastasis loci)” value ([1]; 50 mg/kg/d) of the same compound?
A: 5.4 ± 2.6

Q: And the Tumor weight ([1]; 50 mg/kg/d)?
A: 1.5844 ± 0.8288 g

Q: And the tumor inhibition rate ([1]; 50 mg/kg/d)?
A: 60.05%

Q: What about the Metastasis rate ([1]; 100 mg/kg/d) of the same compound?
A: 100%

Q: What about the “Number of lung (metastasis loci)” value ([1]; 100 mg/kg/d) of the same compound?
A: 3.8 ± 1.9

Q: What about the Tumor weight ([1]; 100 mg/kg/d) of the same compound?
A: 1.0209 ± 0.7332 g

Q: And the tumor inhibition rate ([1]; 100 mg/kg/d)?
A: 74.26%

Q: And the “Hair Condition” value ([1]; high and medium dose (100, 50 mg/kg/d), tumor-bearing mice)?
A: shiny coat

Q: What about the “NF-κB protein expression (integral optical density value)” value (NF-κB; 4 μM) of the same compound?
A: 43.83 ± 1.06

Q: And the “NF-κB protein expression (integral optical density value)” value (NF-κB; 8 μM)?
A: 40.94 ± 0.46

Q: And the Solubility ([2]; 95% ethanol)?
A: 18.51 mg/mL (≈ 47.2 mM)

Q: What about the Solubility ([2]; Absolute ethanol) of the same compound?
A: 23.53 mg/mL (≈ 59.9 mM)

Q: What about the Solubility ([2]; Acetone) of the same compound?
A: 128.97 mg/mL (≈ 329 mM)

Q: And the Solubility ([2]; Acetonitrile)?
A: 28.74 mg/mL (≈ 73.2 mM)

Q: What about the Solubility ([2]; Chloroform) of the same compound?
A: 344.73 mg/mL (≈ 878 mM)

Q: And the Solubility ([2]; Diethyl ether)?
A: 6.31 mg/mL (≈ 16.1 mM)

Q: What about the Solubility ([2]; Ethyl acetate) of the same compound?
A: 40.08 mg/mL (≈ 102 mM)

Q: What about the Solubility ([2]; Methanol) of the same compound?
A: 35.15 mg/mL (≈ 89.6 mM)

Q: And the Solubility ([2]; Propanol)?
A: 25.55 mg/mL (≈ 65.1 mM)
